{"source": "patent US10787450B2", "about": "(BRISTOL-MYERS SQUIBB COMPANY, priority 2016, dated 2020)", "note": "Counter-ions that a name gives are not always drawn.", "data": [{"target": "ROCK2 (Homo sapiens (Human), UniProt O75116)", "sequence (O75116 whole entry, species assumed)": "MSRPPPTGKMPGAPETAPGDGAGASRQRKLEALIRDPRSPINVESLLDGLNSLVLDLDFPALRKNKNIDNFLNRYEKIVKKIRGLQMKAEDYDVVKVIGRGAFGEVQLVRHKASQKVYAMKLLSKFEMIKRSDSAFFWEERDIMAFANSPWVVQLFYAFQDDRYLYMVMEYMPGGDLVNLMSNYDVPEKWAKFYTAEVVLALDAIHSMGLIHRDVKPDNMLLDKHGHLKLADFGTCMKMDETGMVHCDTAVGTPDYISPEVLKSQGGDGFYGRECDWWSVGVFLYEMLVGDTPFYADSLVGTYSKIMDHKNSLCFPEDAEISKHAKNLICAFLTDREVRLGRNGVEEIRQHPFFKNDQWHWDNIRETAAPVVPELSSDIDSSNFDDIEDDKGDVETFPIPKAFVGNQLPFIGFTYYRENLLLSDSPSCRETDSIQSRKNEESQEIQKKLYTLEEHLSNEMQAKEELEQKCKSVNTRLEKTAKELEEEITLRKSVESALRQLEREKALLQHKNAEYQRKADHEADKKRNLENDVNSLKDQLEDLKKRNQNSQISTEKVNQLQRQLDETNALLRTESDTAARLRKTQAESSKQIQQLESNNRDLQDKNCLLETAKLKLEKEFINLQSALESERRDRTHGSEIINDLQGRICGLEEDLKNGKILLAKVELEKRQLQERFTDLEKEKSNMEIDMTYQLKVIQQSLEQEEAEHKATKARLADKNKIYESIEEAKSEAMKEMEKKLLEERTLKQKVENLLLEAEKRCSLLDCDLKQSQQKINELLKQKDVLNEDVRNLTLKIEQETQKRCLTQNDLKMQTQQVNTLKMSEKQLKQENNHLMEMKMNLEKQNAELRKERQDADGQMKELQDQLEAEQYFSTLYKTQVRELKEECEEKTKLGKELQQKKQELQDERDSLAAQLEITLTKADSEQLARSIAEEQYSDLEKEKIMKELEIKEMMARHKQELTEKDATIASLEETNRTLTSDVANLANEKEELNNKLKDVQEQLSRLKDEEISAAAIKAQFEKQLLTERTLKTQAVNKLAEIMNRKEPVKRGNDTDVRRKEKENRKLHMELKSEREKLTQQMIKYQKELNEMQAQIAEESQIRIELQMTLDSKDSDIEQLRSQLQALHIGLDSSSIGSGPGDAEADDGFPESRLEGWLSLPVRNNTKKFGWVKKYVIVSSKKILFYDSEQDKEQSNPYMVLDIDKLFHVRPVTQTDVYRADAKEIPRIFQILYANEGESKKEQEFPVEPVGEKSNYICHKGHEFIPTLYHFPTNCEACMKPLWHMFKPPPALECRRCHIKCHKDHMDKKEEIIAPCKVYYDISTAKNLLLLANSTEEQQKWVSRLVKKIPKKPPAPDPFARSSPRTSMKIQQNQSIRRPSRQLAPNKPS", "assay": "ROCK2 kinase inhibition assay (FITC peptide substrate, LABCHIP 3000 Reader)", "assay_type": "biochemical", "conditions": "5 μM ATP, 1.5 μM peptide substrate", "procedure,_shortened": "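Reaction in 20 mM HEPES pH 7.5, 20 mM MgCl2, 0.015% Brij-35, 4 mM DTT with 5 μM ATP and 1.5 μM FITC-AHA-AKRRRLSSLRA-OH peptide, started with Rho kinase, DMSO <2%. EDTA-stopped; phospho and non-phospho peptide separated by mobility shift. IC50 from dose-response curve fit.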", "units": {"IC50": "nM"}, "values": [{"smiles": "COc1cc(F)cc(CN2C(=O)N(c3ccc(-c4cn[nH]c4)cc3)CC23CC3)c1", "note": "[Example 8, 6-(4-(1H-pyrazol-4-yl)phenyl)-4-(3-fluoro-5-methoxybenzyl)-4,6-diazaspiro[2.4]heptan-5-one]", "IC50": "< 3"}, {"smiles": "CCOC(=O)N1CCC2(CC1)CN(c1ccc(-c3cn[nH]c3)cc1)C(=O)N2Cc1cccc(OC)c1", "note": "[Example 96, ethyl 3-(4-(1H-pyrazol-4-yl)phenyl)-1-(3-methoxybenzyl)-2-oxo-1,3,8-triazaspiro[4.5]decane-8-carboxylate]", "IC50": "< 3"}, {"smiles": "COc1cccc(NC2C(=O)N(c3ccc(-c4cn[nH]c4)cn3)CC23CCN(C(=O)Cc2csc(C)n2)CC3)c1", "note": "(centres unmarked) [Example 257, 2-(5-(1H-pyrazol-4-yl)pyridin-2-yl)-4-((3-methoxy-phenyl)amino)-8-(2-(2-methyl-thiazol-4-yl)acetyl)-2,8-diazaspiro [4.5]decan-3-one]", "IC50": "250 to 3000"}, {"smiles": "COc1cc(F)cc(CN2C(=O)N(c3ccc(-c4cn[nH]c4)cc3)CC23CCN(CC(C)O)CC3)c1", "note": "(centres unmarked) [Example 157, 3-(4-(1H-pyrazol-4-yl)phenyl)-1-(3-fluoro-5-methoxybenzyl)-8-(2-hydroxypropyl)-1,3,8-triazaspiro[4.5]decan-2-one]", "IC50": "< 3"}, {"smiles": "COc1nc(N2CC3(CCN(C(C)=O)CC3)N(Cc3cccc(F)c3C)C2=O)ccc1-c1cn[nH]c1", "note": "[Example 86, 8-acetyl-1-(3-fluoro-2-methylbenzyl)-3-(6-methoxy-5-(1H-pyrazol-4-yl)pyridin-2-yl)-1,3,8-triazaspiro[4.5]decan-2-one]", "IC50": "< 3"}, {"smiles": "COc1cccc(CN2C(=O)N(c3ccc(-c4cn[nH]c4)cc3)CC23CCN(C(=O)OCCOCc2ccccc2)CC3)c1", "note": "[Example 101, 2-(benzyloxy)ethyl 3-(4-(1H-pyrazol-4-yl)phenyl)-1-(3-methoxybenzyl)-2-oxo-1,3,8-triazaspiro[4.5]decane-8-carboxylate]", "IC50": "3 to 30"}, {"smiles": "CCc1nc(N2CC3(CCN(CC(C)O)CC3)N(Cc3cccc(F)c3C)C2=O)ccc1-c1cn[nH]c1", "note": "(centres unmarked) [Example 156, 3-(6-ethyl-5-(1H-pyrazol-4-yl)pyridin-2-yl)-1-(3-fluoro-2-methylbenzyl)-8-(2-hydroxypropyl)-1,3,8-triazaspiro[4.5]decan-2-one]", "IC50": "< 3"}, {"smiles": "COc1nc(N2CC3(CCN(C(=O)C(C)(C)CO)CC3)N(Cc3cccc(F)c3C)C2=O)ccc1-c1cn[nH]c1", "note": "[Example 228, 1-(3-fluoro-2-methylbenzyl)-8-(3-hydroxy-2,2-dimethylpropanoyl)-3-(6-methoxy-5-(1H-pyrazol-4-yl)pyridin-2-yl)-1,3,8-triazaspiro[4.5]decan-2-one]", "IC50": "< 3"}, {"smiles": "O=C(NC1CCOC1)c1cccc(CN2C(=O)N(c3ccc(-c4cn[nH]c4)cc3)CC23CCOCC3)c1", "note": "(centres unmarked) [Example 40, 3-((3-(4-(1H-pyrazol-4-yl)phenyl)-2-oxo-8-oxa-1,3-diazaspiro[4.5]decan-1-yl)methyl)-N-(tetrahydrofuran-3-yl)benzamide]", "IC50": "< 3"}, {"smiles": "COc1cccc(CN2C(=O)N(c3ccc(-c4cn[nH]c4)cc3)CC23CCN(CC2CCOC2)CC3)c1", "note": "(centres unmarked) [Example 114, 3-(4-(1H-pyrazol-4-yl)phenyl)-1-(3-methoxybenzyl)-8-((tetrahydrofuran-3-yl)methyl)-1,3,8-triazaspiro[4.5]decan-2-one]", "IC50": "< 3"}, {"smiles": "CCc1cc(N2CC3(CC3)N(Cc3cccc(OC)c3)C2=O)ccc1-c1cn[nH]c1", "note": "[Example 5, 6-(3-ethyl-4-(1H-pyrazol-4-yl)phenyl)-4-(3-methoxybenzyl)-4,6-diazaspiro[2.4]heptan-5-one]", "IC50": "< 3"}, {"smiles": "COc1nc(N2CC3(CCN(C(=O)CCN4CCCC4=O)CC3)N(Cc3cccc(F)c3C)C2=O)ccc1-c1cn[nH]c1", "note": "[Example 227, 1-(3-fluoro-2-methylbenzyl)-3-(6-methoxy-5-(1H-pyrazol-4-yl)pyridin-2-yl)-8-(3-(2-oxopyrrolidin-1-yl)propanoyl)-1,3,8-triazaspiro[4.5]decan-2-one]", "IC50": "< 3"}, {"smiles": "CCc1nc(N2CC3(CCN(C(=O)OC)CC3)N(Cc3cccc(F)c3C)C2=O)ccc1-c1cn[nH]c1", "note": "[Example 104, methyl 3-(6-ethyl-5-(1H-pyrazol-4-yl)pyridin-2-yl)-1-(3-fluoro-2-methylbenzyl)-2-oxo-1,3,8-triazaspiro[4.5]decane-8-carboxylate]", "IC50": "< 3"}, {"smiles": "COC(=O)N1CCC2(CC1)CN(c1ccc(-c3cn[nH]c3)cc1)C(=O)N2Cc1cc(F)cc(OC)c1", "note": "[Example 109, methyl 3-(4-(1H-pyrazol-4-yl)phenyl)-1-(3-fluoro-5-methoxybenzyl)-2-oxo-1,3,8-triazaspiro[4.5]decane-8-carboxylate]", "IC50": "< 3"}, {"smiles": "O=C1N(c2ccc(-c3cn[nH]c3)cc2)CC2(CCOCC2)N1Cc1cccc(Cl)c1", "note": "[Example 15]", "IC50": "250 to 3000"}, {"smiles": "COC(=O)N1CCC2(CC1)CN(c1ccc(-c3cn[nH]c3)c(OC)n1)C(=O)N2Cc1cccc(F)c1C", "note": "[Example 103, methyl 1-(3-fluoro-2-methylbenzyl)-3-(6-methoxy-5-(1H-pyrazol-4-yl)pyridin-2-yl)-2-oxo-1,3,8-triazaspiro[4.5]decane-8-carboxylate]", "IC50": "< 3"}, {"smiles": "COc1cccc(CN2C(=O)N(c3ccc(-c4cn[nH]c4)cn3)CC23CCN(CC(C)O)CC3)c1", "note": "(centres unmarked) [Example 160, 3-(5-(1H-pyrazol-4-yl)pyridin-2-yl)-8-(2-hydroxypropyl)-1-(3-methoxybenzyl)-1,3,8-triazaspiro[4.5]decan-2-one]", "IC50": "3 to 30"}, {"smiles": "COc1cccc(CN2C(=O)N(c3ccc(-c4cn[nH]c4)cc3)CC23CCN(C(=O)C2CCOCC2)CC3)c1", "note": "[Example 173, 3-(4-(1H-pyrazol-4-yl)phenyl)-1-(3-methoxybenzyl)-8-(tetrahydro-2H-pyran-4-carbonyl)-1,3,8-triazaspiro[4.5]decan-2-one, TFA]", "IC50": "< 3"}, {"smiles": "COc1cccc(C(C)N2C(=O)N(c3ccc(-c4cn[nH]c4)cc3)CC23CC3)c1", "note": "(single isomer, unassigned) [Example 3, 6-(4-(1H-pyrazol-4-yl)phenyl)-4-(1-(3-methoxyphenyl)ethyl)-4,6-diazaspiro[2.4]heptan-5-one]", "IC50": "30 to 250"}, {"smiles": "CCC(CC)CN1CCC2(CC1)CN(c1ccc(-c3cn[nH]c3)cc1)C(=O)N2Cc1cccc(OC)c1", "note": "[Example 123, 3-(4-(1H-pyrazol-4-yl)phenyl)-8-(2-ethylbutyl)-1-(3-methoxybenzyl)-1,3,8-triazaspiro[4.5]decan-2-one]", "IC50": "< 3"}, {"smiles": "CCc1nc(N2CC3(CCN(C(=O)C4CC(F)C4)CC3)N(Cc3cccc(OC)c3)C2=O)ccc1-c1cn[nH]c1", "note": "(centres unmarked) [Example 208, 3-(6-ethyl-5-(1H-pyrazol-4-yl)pyridin-2-yl)-8-(3-fluorocyclobutane-carbonyl)-1-(3-methoxybenzyl)-1,3,8-triazaspiro[4.5]decan-2-one]", "IC50": "3 to 30"}, {"smiles": "COc1cccc(CN2C(=O)N(c3ccc(-c4cn[nH]c4)cc3)CC23CCN(C(=O)[C@H](C)O)CC3)c1", "note": "[Example 177, (S)-3-(4-(1H-pyrazol-4-yl)phenyl)-8-(2-hydroxypropanoyl)-1-(3-methoxybenzyl)-1,3,8-triazaspiro[4.5]decan-2-one]", "IC50": "< 3"}, {"smiles": "COc1nc(N2CC3(CCN(C(=O)C(C)(C)O)CC3)N(Cc3cccc(F)c3C)C2=O)ccc1-c1cn[nH]c1", "note": "[Example 230, 1-(3-fluoro-2-methylbenzyl)-8-(2-hydroxy-2-methylpropanoyl)-3-(6-methoxy-5-(1H-pyrazol-4-yl)pyridin-2-yl)-1,3,8-triazaspiro[4.5]decan-2-one]", "IC50": "< 3"}, {"smiles": "COc1cccc(CN2C(=O)N(c3ccc(-c4cn[nH]c4)c(OC)n3)CC23CCN(C(=O)C(C)(C)O)CC3)c1", "note": "[Example 222, 8-(2-hydroxy-2-methylpropanoyl)-3-(6-methoxy-5-(1H-pyrazol-4-yl)pyridin-2-yl)-1-(3-methoxybenzyl)-1,3,8-triazaspiro[4.5]decan-2-one]", "IC50": "< 3"}, {"smiles": "COc1cccc(CN2C(=O)N(c3ccc(-c4cn[nH]c4)cc3)CC23CCN(CC(C)(C)O)CC3)c1", "note": "[Example 138, 3-(4-(1H-pyrazol-4-yl)phenyl)-8-(2-hydroxy-2-methylpropyl)-1-(3-methoxybenzyl)-1,3,8-triazaspiro[4.5]decan-2-one]", "IC50": "< 3"}, {"smiles": "O=C1N(c2ccc(-c3cn[nH]c3)cc2)CC2(CCOCC2)N1Cc1cccc(F)c1", "note": "[Example 13, 3-(4-(1H-pyrazol-4-yl)phenyl)-1-(3-fluorobenzyl)-8-oxa-1,3-diazaspiro[4.5]decan-2-one]", "IC50": "3 to 30"}, {"smiles": "O=C1N(c2ccc(-c3cn[nH]c3)cc2)CC2(CCNCC2)N1CC1CCCCC1", "note": "[Example 67]", "IC50": "3 to 30"}, {"smiles": "O=C(c1cccc(CN2C(=O)N(c3ccc(-c4cn[nH]c4)cc3)CC23CCOCC3)c1)N1CC[C@H](O)C1", "note": "[Example 44, (S)-3-(4-(1H-pyrazol-4-yl)phenyl)-1-(3-(3-hydroxypyrrolidine-1-carbonyl)benzyl)-8-oxa-1,3-diazaspiro[4.5]decan-2-one]", "IC50": "30 to 250"}, {"smiles": "COc1cccc(NC2C(=O)N(c3ncc(-c4cn[nH]c4)c(OC)n3)CC23CCN(C(=O)c2cnn4ccccc24)CC3)c1", "note": "(centres unmarked) [Example 243, 2-(4-methoxy-5-(1H-pyrazol-4-yl)pyrimidin-2-yl)-4-((3-methoxyphenyl)amino)-8-(pyrazolo[1,5-a]pyridine-3-carbonyl)-2,8-diazaspiro[4.5]decan-3-one]", "IC50": "250 to 3000"}, {"smiles": "CCCOC(=O)N1CCC2(CC1)CN(c1ccc(-c3cn[nH]c3)cc1)C(=O)N2Cc1cccc(OC)c1", "note": "[Example 100, propyl 3-(4-(1H-pyrazol-4-yl)phenyl)-1-(3-methoxybenzyl)-2-oxo-1,3,8-triazaspiro[4.5]decane-8-carboxylate]", "IC50": "< 3"}, {"smiles": "CCc1nc(N2CC3(CCN(C(=O)C(C)O)CC3)N(Cc3cc(F)cc(OC)c3)C2=O)ccc1-c1cn[nH]c1", "note": "(centres unmarked) [Example 188, 3-(6-ethyl-5-(1H-pyrazol-4-yl)pyridin-2-yl)-1-(3-fluoro-5-methoxybenzyl)-8-(2-hydroxypropanoyl)-1,3,8-triazaspiro[4.5]decan-2-one]", "IC50": "< 3"}, {"smiles": "CCc1nc(N2CC3(CCN(C(=O)CO)CC3)N(Cc3cc(F)cc(OC)c3)C2=O)ccc1-c1cn[nH]c1", "note": "[Example 186, 3-(6-ethyl-5-(1H-pyrazol-4-yl)pyridin-2-yl)-1-(3-fluoro-5-methoxybenzyl)-8-(2-hydroxyacetyl)-1,3,8-triazaspiro[4.5]decan-2-one]", "IC50": "< 3"}]}]}
